Results from paper PMC11971462, “Generation and validation of a novel multitarget small molecule in glioblastoma” (Cell Death & Disease, 2025).

Test system: GNS166 cells

C#CCN(Cc1cc2cc(OCCCN3CCCCC3)ccc2n1S(=O)(=O)c1ccccc1)C(=O)CCCCCCC(=O)NO [DDI]
PCBP3 log2FoldChange: 5.457 | PCDH15 log2FoldChange: 3.424 | PCDH19 log2FoldChange: 2.11 | PCDHA13 log2FoldChange: 3.483 | PCOLCE2 log2FoldChange: 2.03 | PCP4L1 log2FoldChange: 4.897 | PCSK1 log2FoldChange: 3.118 | PDE2A log2FoldChange: 2.038 | PDE3A log2FoldChange: 2.332 | PDE4C log2FoldChange: 2.296 | PDK4 log2FoldChange: 2.588 | PDX1 log2FoldChange: 3.554 | PLA2G4A log2FoldChange: 2.126 | PLCXD2 log2FoldChange: 2.533 | PLEK2 log2FoldChange: 2.459 | PLEKHA6 log2FoldChange: 2.086 | PLP1 log2FoldChange: 2.506 | PPM1N log2FoldChange: 2.335 | PPP1R1B log2FoldChange: 4.39 | PPP1R16B log2FoldChange: 3.376 | PPP4R4 log2FoldChange: 3.111 | PRR29 log2FoldChange: 3.599 | PRRX2 log2FoldChange: 2.314 | PRSS3 log2FoldChange: 3.932 | PSD2 log2FoldChange: 3.562 | PSG1 log2FoldChange: 5.24 | PSG4 log2FoldChange: 4.564 | PSG5 log2FoldChange: 4.838 | PSG9 log2FoldChange: 3.658 | PTGS1 log2FoldChange: 4.0843 | PTPN5 log2FoldChange: 4.236 | PTPRO log2FoldChange: 3.032 | PTPRQ log2FoldChange: 3.237 | QPRT log2FoldChange: 2.003 | RAB39A log2FoldChange: 2.508 | RADX log2FoldChange: 2.3792 | RAET1G log2FoldChange: 2.196 | RAP1GAP log2FoldChange: 2.521 | RARB log2FoldChange: 2.002 | RASD2 log2FoldChange: 3.718 | RASIP1 log2FoldChange: 2.128 | RDH12 log2FoldChange: 3.657 | REM1 log2FoldChange: 2.662 | RFPL4A log2FoldChange: 5.081 | RFTN2 log2FoldChange: 4.233 | RGS9 log2FoldChange: 5.175 | RIMBP2 log2FoldChange: 6.452 | RIMS4 log2FoldChange: 5.004 | RNF165 log2FoldChange: 3.79 | RUNDC3A log2FoldChange: 4.619 | S100B log2FoldChange: 3.045 | SAMD11 log2FoldChange: 4.391 | SCEL log2FoldChange: 2.003 | SCIN log2FoldChange: 3.412 | SCN3A log2FoldChange: 2.697 | SCN4B log2FoldChange: 2.757 | SCN5A log2FoldChange: 2.371 | SCN9A log2FoldChange: 2.594 | SCUBE1 log2FoldChange: 7.641 | SEMA3F log2FoldChange: 2.777 | SEMA5A log2FoldChange: 2.383 | SERPING1 log2FoldChange: 4.327 | SERPINI1 log2FoldChange: 3.966 | SERTM1 log2FoldChange: 2.165 | SGIP1 log2FoldChange: 2.3607 | SH2D3C log2FoldChange: 5.237 | SHANK1 log2FoldChange: 6.717 | SHF log2FoldChange: 2.222 | SHISA7 log2FoldChange: 4.7 | SLC4A5 log2FoldChange: 2.594 | SLC6A17 log2FoldChange: 2.657 | SLC7A2 log2FoldChange: 3.19 | SLC7A10 log2FoldChange: 6.012 | SLC8A2 log2FoldChange: 4.387 | SLC9A9 log2FoldChange: 2.124 | SLC16A12 log2FoldChange: 2.212 | SLC22A31 log2FoldChange: 5.211 | SLC25A27 log2FoldChange: 5.956 | SLC44A3 log2FoldChange: 2.701 | SLC45A1 log2FoldChange: 2.018 | SLIT2 log2FoldChange: 2.219 | SLITRK3 log2FoldChange: 2.145 | SMPDL3B log2FoldChange: 3.134 | SNCB log2FoldChange: 4.848 | SNX22 log2FoldChange: 2.0694 | SNX32 log2FoldChange: 2.323 | SOBP log2FoldChange: 2.326 | SPANXC log2FoldChange: 2.711 | SPINK2 log2FoldChange: 3.038 | SPNS2 log2FoldChange: 3.326 | SSTR2 log2FoldChange: 2.236 | ST3GAL5 log2FoldChange: 2.386 | ST6GALNAC3 log2FoldChange: 2.853 | STAT4 log2FoldChange: 3.605 | STC1 log2FoldChange: 3.854 | STMN3 log2FoldChange: 2.874 | STUM log2FoldChange: 6.45 | STX1B log2FoldChange: 2.758 | STXBP5L log2FoldChange: 2.17 | SYNPO2 log2FoldChange: 2.428 | SYP log2FoldChange: 4.307 | SYT2 log2FoldChange: 5.115 | SYT5 log2FoldChange: 6.667 | SYT13 log2FoldChange: 2.882 | SYTL3 log2FoldChange: 2.536 | TAGLN3 log2FoldChange: 3.305 | TBC1D8B log2FoldChange: 2.1255 | TCEAL5 log2FoldChange: 4.062 | TCIM log2FoldChange: 3.258 | TEC log2FoldChange: 4.937 | TEKT3 log2FoldChange: 2.698 | TESC log2FoldChange: 5.269 | TEX19 log2FoldChange: 3.325 | THSD7B log2FoldChange: 3.117 | TJP3 log2FoldChange: 5.915 | TLCD3B log2FoldChange: 2.485 | TLR9 log2FoldChange: 2.809 | TLX2 log2FoldChange: 2.462 | TMEM47 log2FoldChange: 2.003 | TMEM74B log2FoldChange: 3.647 | TMEM74 log2FoldChange: 4.084 | TMEM92 log2FoldChange: 3.463 | TMEM139 log2FoldChange: 3.161 | TMEM145 log2FoldChange: 3.464 | TMEM151B log2FoldChange: 3.192
